Laboratory results: article PMC6005341, “Identification of “sarsasapogenin-aglyconed” timosaponins as novel Aβ-lowering modulators of amyloid precursor protein processing” (Chemical Science, 2016)
Read-outs that look alike come from different tables or passages of the source.

Tests used:
[1] = system: Aβ42 production in N2A-APPswe cells; assay: Aβ42 in conditioned medium of N2A-APPswe cells by ELISA, 18 h treatment; assay type: cell-based; conditions: for IC50: mean ± standard deviation, n ≥ 3
From the text: Sigma-Aldrich Chemical Co. unless otherwise specified. SSG (1) was purchased from Wako Pure Chemical Industries, Ltd. Diosgenin (6), Dioscin (9), Polyphyllin D (10), Timosaponin BI (22) and Timosaponin BII (23) were purchased from Chengdu Must Bio-Technology Co.
Ltd. Yamogenin (7) was bought from Ambinter c/o Greenpharma while Smilagenin (24) was bought from Steraloids Inc. Substances dissolved in DMSO as stock solutions. Cell culture medium constituents were purchased from Life Technologies, Inc.
Cell culture: Neuro-2A cells expressing Swedish mutants of APP (N2A-APPswe provided by Prof. Yifan Han, The Hong Kong Polytechnic University)1 was cultured in minimal essential medium with 2 mM glutamine, 2 mM pyruvate and 10% fetal bovine serum. […]
(§1) Aβ ELISA: Aβ concentrations in conditioned medium were assayed using ELISA kits for […]

Neuro-2A cells = assay: Neurite outgrowth, type III β-tubulin immunostaining; assay type: cell-based; conditions: at concentrations that lower Aβ production, 18 h
Description: Immunofluorescence examination of neurite outgrowth: Neuro-2A cells were seeded at 1×105 per glass bottom dishes. After treatment, cells were fixed with 4% paraformaldyde for 10 min, permeabilized with 0.1% Triton X-100, and then blocked with 1% BSA in PBS.
The cells were incubated with monoclonal antibody raised against type III β-tubulin (Sigma) for 1 h followed by Alexa488 conjugated secondary antibody. Neurite morphology was examined under fluorescence microscope. […]

[2] = system: brain Aβ / amyloid in APPswe transgene; conditions: oral 25 mg/kg for 18 h, ref FASEB J. (2006) 20: E599; cited from earlier work
[3] = system: Aβ40 and Aβ38 in N2A-APPswe cells; assay: Aβ40 and Aβ38 in conditioned medium of N2A-APPswe cells by ELISA; assay type: cell-based; conditions: compared with Aβ42
Description: as §1

[4] = N2a-APPswe, read-out: IC50 in lowering Aβ42 production, N2A-APPswe cells
[5] = N2A-APPswe cells, read-out: IC50 in lowering Aβ42 production

| Structure (SMILES) | IC50 [1, 4] [µM] | Aβ42-lowering effect (in words) ([1]; N2A-APPswe cells) | other results |
| --- | --- | --- | --- |
| COC1OC(Cn2cc(COC3CCC4(C)C(CCC5C4CCC4(C)C5CC5OC6(CCC(C)CO6)C(C)C54)C3)nn2)C(O)C(O)C1O (stereo not drawn) [α-OMe triazole SSG (28), α-OMe triazole SSG] | 6.5 ± 2.1 | – | – |
| C[C@H]1CC[C@@]2(OC1)O[C@H]1C[C@H]3[C@@H]4CC[C@@H]5CC(=O)CC[C@]5(C)[C@H]4CC[C@]3(C)[C@H]1[C@@H]2C [Sarsasapogenone (19), sarsasapogenone] | 50 ± 5 | comparable effect to 1 | – |
| CC1CCC2(OC1)OC1CC3C4CCC5CC(OCC(=O)O)CCC5(C)C4CCC3(C)C1C2C (stereo not shown) [Ethereal SSG (29), ethereal SSG] | 27 ± 8 | – | – |
| C[C@H]1CC[C@@]2(OC1)O[C@H]1C[C@H]3[C@@H]4CC[C@@H]5C[C@H](O)CC[C@]5(C)[C@H]4CC[C@]3(C)[C@H]1[C@@H]2C [Episarsasapogenin (20), episarsasapogenin] | > 100 | inactive | neurite outgrowth (Neuro-2A cells): not shared |
| CO[C@]1(CC[C@H](C)CO[C@@H]2O[C@H](CO)[C@@H](O)[C@H](O)[C@H]2O)O[C@H]2C[C@H]3[C@@H]4CC[C@@H]5C[C@@H](O[C@@H]6O[C@H](CO)[C@H](O)[C@H](O)[C@H]6O[C@@H]6O[C@H](CO)[C@@H](O)[C@H](O)[C@H]6O)CC[C@]5(C)[C@H]4CC[C@]3(C)[C@H]2[C@@H]1C [Timosaponin B I (22), Timosaponin B I] | > 100 | ineffective | – |
| C[C@@H]1CC[C@@]2(OC1)O[C@H]1C[C@H]3[C@@H]4CC=C5C[C@@H](O[C@@H]6O[C@H](CO)[C@@H](O[C@@H]7O[C@@H](C)[C@H](O)[C@@H](O)[C@H]7O)[C@H](O)[C@H]6O[C@@H]6O[C@@H](C)[C@H](O)[C@@H](O)[C@H]6O)CC[C@]5(C)[C@H]4CC[C@]3(C)[C@H]1[C@@H]2C [Compound 9, dioscin] | – | insignificant Aβ42-lowering effects | – |
| CC(C)=CCC[C@](C)(O)[C@H]1CC[C@]2(C)[C@@H]1[C@H](O)C[C@@H]1[C@@]3(C)CC[C@H](O[C@@H]4O[C@H](CO)[C@@H](O)[C@H](O)[C@H]4O[C@@H]4O[C@H](CO)[C@@H](O)[C@H](O)[C@H]4O)C(C)(C)[C@@H]3CC[C@]12C [Rg3] | – | – | Brain Aβ1-42 reduced by [2]: 30% |
| C[C@H]1CC[C@@]2(OC1)O[C@H]1C[C@H]3[C@@H]4C[C@H](O)[C@H]5C[C@@H](O)CC[C@]5(C)[C@H]4CC[C@]3(C)[C@H]1[C@@H]2C [5α-H, 6α-OH yamogenin (17), 5α-H, 6α-OH yamogenin] | > 100 | – | – |
| C[C@@H]1CC[C@@]2(OC1)O[C@H]1C[C@H]3[C@@H]4CC[C@H]5C[C@@H](O)CC[C@]5(C)[C@H]4CC[C@]3(C)[C@H]1[C@@H]2C [Tigogenin (13), tigogenin] | > 100 | ineffective | neurite outgrowth (Neuro-2A cells): not shared |
| C[C@H]1CC[C@@]2(OC1)O[C@H]1C[C@H]3[C@@H]4C[C@@H](O)[C@@H]5C[C@@H](O)CC[C@]5(C)[C@H]4CC[C@]3(C)[C@H]1[C@@H]2C [5β-H, 6β-OH yamogenin (18), 5β-H, 6β-OH yamogenin] | 45 ± 4 | – | – |
| C[C@H](CO)CC[C@H]1O[C@H]2C[C@H]3[C@@H]4CC[C@@H]5C[C@@H](O)CC[C@]5(C)[C@H]4CC[C@]3(C)[C@H]2[C@@H]1C [Dihydrosarsasapogenin (21), dihydrosarsasapogenin] | > 100 | – | – |
| C[C@H]1CC[C@@]2(OC1)O[C@H]1C[C@H]3[C@@H]4CC=C5C[C@@H](O)CC[C@]5(C)[C@H]4CC[C@]3(C)[C@H]1[C@@H]2C [Yamogenin (7), yamogenin] | – | no effect | neurite outgrowth (Neuro-2A cells): not shared; IC50 [1, 5]: > 100 µM |
| C[C@@H]1CC[C@@]2(OC1)O[C@H]1C[C@H]3[C@@H]4CC[C@H]5C[C@@H](O[C@@H]6O[C@H](CO)[C@@H](O[C@@H]7O[C@@H](C)[C@H](O)[C@@H](O)[C@H]7O)[C@H](O)[C@H]6O[C@@H]6O[C@@H](C)[C@H](O)[C@@H](O)[C@H]6O)CC[C@]5(C)[C@H]4CC[C@]3(C)[C@H]1[C@@H]2C [Compound 11, dihydrodioscin] | – | insignificant Aβ42-lowering effects | – |
| COC1OC(CNC(=O)COC2CCC3(C)C(CCC4C3CCC3(C)C4CC4OC5(CCC(C)CO5)C(C)C43)C2)C(O)C(O)C1O (stereo not drawn) [α-OMe SSG (32), α-OMe SSG] | 7.2 ± 2.2 | – | – |
| C[C@H]1CC[C@@]2(OC1)O[C@H]1C[C@H]3[C@@H]4CC[C@H]5C[C@@H](O)CC[C@]5(C)[C@H]4CC[C@]3(C)[C@H]1[C@@H]2C [Neotigogenin (14), neotigogenin] | > 100 | ineffective | neurite outgrowth (Neuro-2A cells): not shared |
| C[C@@H]1CC[C@@]2(OC1)O[C@H]1C[C@H]3[C@@H]4CC=C5C[C@@H](O)CC[C@]5(C)[C@H]4CC[C@]3(C)[C@H]1[C@@H]2C [Diosgenin (6), diosgenin] | – | no effect | neurite outgrowth (Neuro-2A cells): not shared; IC50 [1, 5]: > 100 µM |
| C[C@@H]1CC[C@@]2(OC1)O[C@H]1C[C@H]3[C@@H]4CC=C5C[C@@H](O[C@@H]6O[C@H](CO)[C@H](O)[C@H](O)[C@H]6O)CC[C@]5(C)[C@H]4CC[C@]3(C)[C@H]1[C@@H]2C [Capsicoside A3 (8), capsicoside A3] | – | – | IC50 [1, 5]: > 100 µM |
| COC1OC(CNC(=O)COC2CCC3(C)C(CCC4C3CCC3(C)C4CC4OC5(CCC(C)CO5)C(C)C43)C2)C(O)C(O)C1O (stereo not drawn) [β-OMe SSG (33), β-OMe SSG] | – | – | IC50 ([1]; read-out: IC50 in lowering Aβ42 production, N2A-APPswe cells): 9.3 ± 3.5 µM |
| C[C@@H]1CC[C@@]2(OC1)O[C@H]1C[C@H]3[C@@H]4C[C@H](O)[C@H]5C[C@@H](O)CC[C@]5(C)[C@H]4CC[C@]3(C)[C@H]1[C@@H]2C [5α-H, 6α-OH diosgenin (15), 5α-H, 6α-OH diosgenin] | > 100 | – | – |
| C[C@@H]1CC[C@@]2(OC1)O[C@H]1C[C@H]3[C@@H]4CC[C@@H]5C[C@@H](O)CC[C@]5(C)[C@H]4CC[C@]3(C)[C@H]1[C@@H]2C [Smilagenin (24), smilagenin] | > 100 | ineffective | neurite outgrowth (Neuro-2A cells): not shared |
| C[C@@H]1CC[C@@]2(OC1)O[C@H]1C[C@H]3[C@@H]4C[C@@H](O)[C@@H]5C[C@@H](O)CC[C@]5(C)[C@H]4CC[C@]3(C)[C@H]1[C@@H]2C [5β-H, 6β-OH diosgenin (16), 5β-H, 6β-OH diosgenin] | > 100 | ineffective | – |
| C[C@H]1CC[C@@]2(OC1)O[C@H]1C[C@H]3[C@@H]4CC[C@@H]5C[C@@H](O[C@@H]6O[C@H](CO)[C@H](O[C@@H]7O[C@H](CO)[C@@H](O)[C@H](O)[C@H]7O)[C@H](O)[C@H]6O[C@@H]6O[C@H](CO)[C@@H](O)[C@H](O)[C@H]6O)CC[C@]5(C)[C@H]4CC[C@]3(C)[C@H]1[C@@H]2C [TAV (4), timosaponin A V] | ~4.2 | effectively lowered | effect on Aβ40 and Aβ38 [3]: much smaller effect |
| C[C@H]1CC[C@@]2(OC1)O[C@H]1C[C@H]3[C@@H]4CC[C@@H]5C[C@@H](O[C@@H]6O[C@H](CO)[C@@H](O)[C@H](O)[C@H]6O)CC[C@]5(C)[C@H]4CC[C@]3(C)[C@H]1[C@@H]2C [AA (5), Asparagoside A] | ~6 | effectively lowered | effect on Aβ40 and Aβ38 [3]: much smaller effect |
| CC(C)[C@@H](C)/C=C/[C@@H](C)[C@H]1CC[C@H]2C3=CC=C4C[C@@H](O)CC[C@]4(C)[C@H]3CC[C@]12C [Ergosterol, reference compound] | – | – | IC50 [1, 5]: > 100 µM |
